Data reported in ChEMBL document CHEMBL1201862, “PubChem BioAssay data set” (2004).
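Briefly, cells in 96-well plates were exposed to five compound concentrations for 48 h, and endpoints were estimated by linear interpolation. At the GI50, growth is halved.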 The source made the active and inactive calls. Rule as the data show it: active = GI50 up to about 1.1 µM and inactive = higher.

Experiments:
Assay in all cases: growth of human tumour cells (NCI), 48 h
[1] = test system: 786-0
[2] = test system: A549
[3] = test system: ACHN
[4] = test system: BT-549
[5] = test system: CAKI-1
[6] = test system: CCRF-CEM
[7] = test system: COLO 205
[8] = test system: DU-145
[9] = test system: EKVX
[10] = test system: HCC 2998
[11] = test system: HCT-116
[12] = test system: HCT-15
[13] = test system: HL-60
[14] = test system: HOP-62
[15] = test system: HT-29
[16] = test system: Hs-578T
[17] = test system: IGROV-1
[18] = test system: K562
[19] = test system: KM12
[20] = test system: LOX IMVI
[21] = test system: M14
[22] = test system: MCF7
[23] = test system: MDA-MB-231
[24] = test system: MDA-MB-435
[25] = test system: MDA-N
[26] = test system: Malme-3M
[27] = test system: NCI-H23
[28] = test system: NCI-H522
[29] = test system: NCI/ADR-RES
[30] = test system: OVCAR-3
[31] = test system: OVCAR-4
[32] = test system: OVCAR-5
[33] = test system: OVCAR-8
[34] = test system: PC-3
[35] = test system: RPMI-8226
[36] = test system: RXF 393
[37] = test system: SF-268
[38] = test system: SF-295
[39] = test system: SF-539
[40] = test system: SK-MEL-28
[41] = test system: SK-MEL-2
[42] = test system: SK-MEL-5
[43] = test system: SN12C
[44] = test system: SNB-19
[45] = test system: SNB-75
[46] = test system: SR
[47] = test system: SW-620
[48] = test system: T47D
[49] = test system: TK-10
[50] = test system: UACC-257
[51] = test system: UACC-62
[52] = test system: UO-31
[53] = test system: A498
[54] = test system: HOP-92
[55] = test system: MOLT-4
[56] = test system: NCI-H226
[57] = test system: NCI-H460
[58] = test system: SK-OV-3
[59] = test system: U-251

In the case of `COc1cccc(NC(=O)CC(=O)N2N=C(C)C(/N=N/c3ccc(C(=O)O)cc3)C2=O)c1` (stereo not given), the GI50 [1] is reported as > 100 µM (inactive), the GI50 [2] is reported as > 100 µM (inactive) and the GI50 [3] is reported as > 100 µM (inactive). For the same compound, the GI50 [4] was > 100 µM (inactive), the GI50 [5] was > 100 µM (inactive) and the GI50 [6] was > 100 µM (inactive). The GI50 [7] was > 100 µM (inactive), the GI50 [8] was > 100 µM (inactive) and the GI50 [9] was 25.4 µM (inactive). For the same compound, the GI50 [10] was > 100 µM (inactive), the GI50 [11] was > 100 µM (inactive) and the GI50 [12] was greater than 100 µM. The GI50 [13] was > 100 µM (inactive), the GI50 [14] was > 100 µM (inactive) and the GI50 [15] was 93.8 µM (inactive). The GI50 [16] was > 100 µM (inactive), the GI50 [17] was 46.7 µM (inactive) and the GI50 [18] was > 100 µM (inactive). The GI50 [19] was > 100 µM (inactive), the GI50 [20] was > 100 µM (inactive) and the GI50 [21] was > 100 µM (inactive). The GI50 [22] was > 100 µM (inactive), the GI50 [23] was > 100 µM (inactive) and the GI50 [24] was > 100 µM (inactive). The GI50 [25] was > 100 µM (inactive), the GI50 [26] was 56.6 µM (inactive) and the GI50 [27] was > 100 µM (inactive). For the same compound, the GI50 [28] was 43.1 µM (inactive), the GI50 [29] was > 100 µM (inactive) and the GI50 [30] was > 100 µM (inactive). The GI50 [31] was > 100 µM (inactive), the GI50 [32] was > 100 µM (inactive) and the GI50 [33] was > 100 µM (inactive). The GI50 [34] was > 100 µM (inactive), the GI50 [35] was > 100 µM (inactive) and the GI50 [36] was > 100 µM (inactive). For the same compound, the GI50 [37] was > 100 µM (inactive), the GI50 [38] was > 100 µM (inactive) and the GI50 [39] was > 100 µM (inactive). For the same compound, the GI50 [40] was > 100 µM (inactive), the GI50 [41] was > 100 µM (inactive) and the GI50 [42] was > 100 µM (inactive). The GI50 [43] was > 100 µM (inactive), the GI50 [44] was > 100 µM (inactive) and the GI50 [45] was 16.6 µM (inactive). For the same compound, the GI50 [46] was > 100 µM (inactive), the GI50 [47] was > 100 µM (inactive) and the GI50 [48] was > 100 µM (inactive). The GI50 [49] was > 100 µM (inactive), the GI50 [50] was > 100 µM (inactive) and the GI50 [51] was > 100 µM (inactive). For the same compound, the GI50 [52] was > 100 µM (inactive).

With `CSc1ccc(Nc2cc(=O)[nH]c(=O)[nH]2)cc1` the GI50 [1] was > 100 µM (inactive), the GI50 [53] was > 100 µM (inactive) and the GI50 [2] was > 100 µM (inactive). The GI50 [3] was > 100 µM (inactive), the GI50 [4] was > 100 µM (inactive) and the GI50 [5] was > 100 µM (inactive). For the same compound, the GI50 [6] was > 100 µM (inactive), the GI50 [7] was > 100 µM (inactive) and the GI50 [8] was > 100 µM (inactive). The GI50 [10] was > 100 µM (inactive), the GI50 [11] was > 100 µM (inactive) and the GI50 [12] was greater than 100 µM. The GI50 [13] was > 100 µM (inactive), the GI50 [54] was > 100 µM (inactive) and the GI50 [15] was > 100 µM (inactive). The GI50 [16] was > 100 µM (inactive), the GI50 [18] was > 100 µM (inactive) and the GI50 [20] was > 100 µM (inactive). For the same compound, the GI50 [21] was > 100 µM (inactive), the GI50 [22] was > 100 µM (inactive) and the GI50 [23] was > 100 µM (inactive). For the same compound, the GI50 [24] was > 100 µM (inactive), the GI50 [25] was > 100 µM (inactive) and the GI50 [55] was > 100 µM (inactive). For the same compound, the GI50 [26] was > 100 µM (inactive), the GI50 [56] was > 100 µM (inactive) and the GI50 [27] was > 100 µM (inactive). For the same compound, the GI50 [57] was > 100 µM (inactive), the GI50 [28] was > 100 µM (inactive) and the GI50 [29] was > 100 µM (inactive). For the same compound, the GI50 [30] was > 100 µM (inactive), the GI50 [31] was > 100 µM (inactive) and the GI50 [32] was > 100 µM (inactive). The GI50 [33] was 60.4 µM (inactive), the GI50 [34] was > 100 µM (inactive) and the GI50 [35] was > 100 µM (inactive). The GI50 [37] was > 100 µM (inactive), the GI50 [38] was > 100 µM (inactive) and the GI50 [39] was > 100 µM (inactive). The GI50 [40] was > 100 µM (inactive), the GI50 [41] was > 100 µM (inactive) and the GI50 [42] was > 100 µM (inactive). For the same compound, the GI50 [58] was > 100 µM (inactive), the GI50 [43] was > 100 µM (inactive) and the GI50 [44] was > 100 µM (inactive). For the same compound, the GI50 [46] was > 100 µM (inactive), the GI50 [47] was > 100 µM (inactive) and the GI50 [48] was > 100 µM (inactive). The GI50 [59] was > 100 µM (inactive), the GI50 [50] was > 100 µM (inactive) and the GI50 [51] was > 100 µM (inactive). The GI50 [52] was > 100 µM (inactive).

With `COC(=O)[C@]1(C)CCC[C@@]2(C)[C@@H]3C[C@@H]4[C@H]5C[C@@]3(CC[C@@H]21)C[C@@]45C` the GI50 [1] was 16.1 µM (inactive), the GI50 [53] was 17.2 µM (inactive) and the GI50 [2] was 14.1 µM (inactive). The GI50 [3] was 15.8 µM (inactive), the GI50 [4] was 16.5 µM (inactive) and the GI50 [5] was 16.4 µM (inactive). The GI50 [6] was 18 µM (inactive), the GI50 [7] was 20.5 µM (inactive) and the GI50 [8] was 25.8 µM (inactive). The GI50 [9] was 15.6 µM (inactive), the GI50 [10] was 17.3 µM (inactive) and the GI50 [11] was 20 µM (inactive). For the same compound, the GI50 [12] was 16.2 µM, the GI50 [13] was 2.08 µM (inactive) and the GI50 [14] was 17.8 µM (inactive). For the same compound, the GI50 [54] was 15.2 µM (inactive), the GI50 [15] was 14.5 µM (inactive) and the GI50 [16] was 20.5 µM (inactive). The GI50 [17] was 19.3 µM (inactive), the GI50 [18] was 0.643 µM (active) and the GI50 [20] was 19.7 µM (inactive). The GI50 [21] was 20.7 µM (inactive), the GI50 [22] was 14.9 µM (inactive) and the GI50 [23] was 15.6 µM (inactive). For the same compound, the GI50 [24] was 18.3 µM (inactive), the GI50 [25] was 17.9 µM (inactive) and the GI50 [55] was 14.5 µM (inactive). For the same compound, the GI50 [26] was 22.2 µM (inactive), the GI50 [56] was 15.8 µM (inactive) and the GI50 [27] was 14.6 µM (inactive). The GI50 [28] was 16.8 µM (inactive), the GI50 [29] was 15.7 µM (inactive) and the GI50 [30] was 18.2 µM (inactive). For the same compound, the GI50 [31] was 13.8 µM (inactive), the GI50 [32] was 18 µM (inactive) and the GI50 [33] was 16.4 µM (inactive). For the same compound, the GI50 [34] was 15.2 µM (inactive), the GI50 [35] was 10.3 µM (inactive) and the GI50 [36] was 17.1 µM (inactive). The GI50 [37] was 17.9 µM (inactive), the GI50 [38] was 15.2 µM (inactive) and the GI50 [39] was 22.1 µM (inactive). For the same compound, the GI50 [40] was 17.5 µM (inactive), the GI50 [41] was 16.4 µM (inactive) and the GI50 [42] was 17.2 µM (inactive). The GI50 [58] was 14.7 µM (inactive), the GI50 [43] was 19.2 µM (inactive) and the GI50 [44] was 13.9 µM (inactive). For the same compound, the GI50 [45] was 17.7 µM (inactive), the GI50 [47] was 24.3 µM (inactive) and the GI50 [48] was 23.2 µM (inactive). For the same compound, the GI50 [49] was 15.1 µM (inactive), the GI50 [59] was 24 µM (inactive) and the GI50 [50] was 15.4 µM (inactive). For the same compound, the GI50 [51] was 14.8 µM (inactive) and the GI50 [52] was 16 µM (inactive).
